In assay [1] the test system is Radical scavenging activity. The experiment in a line: Antioxidant activity assessed as DPPH radical scavenging activity. In kind it is functional. On the technique in general: Loss of DPPH colour is used to gauge radical scavenging.
Assay [2] deals with SW480. The experiment in a line: Cytotoxicity against human SW480 cells after 72 hrs by MTT assay. In kind it is functional, cell-based. The following applies: SW480, 72 h. On the technique in general: Formazan colour is commonly taken as a measure of viable cells.

These results are taken from ChEMBL document CHEMBL1158699, “Bioactive benzophenones from Garcinia xanthochymus fruits” (J Nat Prod, 2005).

The source made the active and inactive calls. The calls are words filed in the database; no cut-off is given here.

As usually defined, the IC50 is the midpoint of a concentration-inhibition curve. As to `O=c1c(-c2c(O)cc(O)c3c(=O)cc(-c4ccc(O)cc4)oc23)c(-c2ccc(O)cc2)oc2cc(O)cc(O)c12`, the 50% inhibitory concentration (IC50) in assay [1] was over 400 µM; in assay [2], 185 µM.

Turning to `O=C1c2c(O)cc(O)cc2OC(c2ccc(O)cc2)C1c1c(O[C@@H]2O[C@H](CO)[C@@H](O)[C@H](O)[C@H]2O)cc(O)c2c(=O)cc(-c3ccc(O)c(O)c3)oc12` (mixture of isomers), the half-maximal inhibitory concentration (IC50) in assay [1] is 116 µM; in assay [2], over 200 µM.

`O=C1c2c(O)cc(O)cc2OC(c2ccc(O)cc2)C1c1c(O)cc(O)c2c(=O)cc(-c3ccc(O)c(O)c3)oc12` (racemic): the IC50 in assay [1] was 62 µM; in assay [2], 89 µM.

As for `COc1cc2c(=O)c3c(O)cc(O)cc3oc2cc1O` [ALLOATHYRIOL], the result in assay [1] was inactive. In assay [2], this compound gave an IC50 of 117 µM.

With `O=c1cc(-c2ccc(O)c(-c3c(O)cc(O)c4c(=O)cc(-c5ccc(O)cc5)oc34)c2)oc2cc(O)cc(O)c12` [AMENTOFLAVONE], the IC50 in assay [1] stood at 184 µM; in assay [2] it was 111 µM.
